The IC50 is the concentration that inhibits the measured activity by half. A low value points to higher potency. As usually defined, the inhibition is the change of the read-out against control, counted positive when it falls.

Each structure is given as a SMILES string. Where two headings read alike, the source gives them in different places. Bounds are passed on as bounds.

Data set [1] relates to 22Rv1 cells. The data set is described as follows: Annexin-V-FITC/PI double staining, flow cytometry. The class given is cell-based, human. The settings on record: 22Rv1, zVAD 100 µM 1 h pretreatment, 48 h. Here is the method:
Figure 4 Investigation of the proapoptotic activity of NB. Flow cytometry analysis of 22Rv1 cells after 48 h of treatment. (A) Cell cycle and DNA fragmentation analysis. Treated cells were stained with PI and analyzed using a flow cytometry technique. Sub-G1 population was assumed to be apoptotic cells containing fragmentated DNA. (B) Analysis of phosphatidylserine externalization. Treated cells were double-stained with annexin-V-FITC and PI and analyzed using the flow cytometry technique. Cells of the low left quadrant (annexin-V-FITC^−/PI^−) were considered as alive cells. The Cell Quest Pro v.5.2.1 software (BD Bioscience, San Jose, CA, USA) was used to analyze and quantify the FACS data. Cells treated for 48 h with 10 µM of anisomycin were used as a positive control. Number of replicates n = 3. Statistical significance: * p < 0.05 (ANOVA). […]
Externalization of phosphatidylserine is a distinct marker of apoptotic cell death that can be detected by flow cytometry using annexin-V-FITC and propidium iodide (PI) double staining. […] Cells were harvested utilizing trypsin, stained with annexin-V-FITC and propidium iodide, and analyzed using FACS Calibur (BD Bioscience, San Jose, CA, USA).
A general note: A flow cytometer gives signals particle by particle.

The subject of data set [2] is PC3-DR cells. The settings on record: PC3-DR vs PC3; cited from earlier work.
For a further data set, the system named is PC3-DR. The data set is described as follows: MTT assay, cell viability. The format is cell-based, human. The settings on record: Homo sapiens, PC3-DR, 48 h of treatment, mean ± SD. From the text: (§1) To examine the anticancer potential and selectivity of NB, we used a panel of six human prostate cancer cell lines, harboring different levels of treatment resistance to representatively reflect the heterogeneity of the disease. […] Additionally, four human noncancer cells lines were utilized in order to determine the selectivity of NB towards prostate cancer cells, i.e., prostate noncancer PNT2 and RWPE-1 cells, human embryonic kidney HEK 293T cells, and human fibroblasts MRC-9. The different cell lines were treated with NB and the cell viability was examined using MTT assay (Figure 1). The mean IC50 of NB and docetaxel (used as a reference substance) in noncancerous cell lines was divided by the mean IC50 in the prostate cancer cell lines to determine the selectivity index (SI).
(§2) The MTT assay was used to monitor the effect of the drugs on cell viability in terms of metabolic activity, as previously reported. First, preincubation of the cells in 96-well plates (6 × 10^3 cells/well in 100 μL/well) was performed overnight in the correspondent culture medium. Next, the medium was exchanged for fresh medium containing the investigated compounds or a vehicle (100 μL/well). Cells were then incubated for 48 h, unless otherwise stated. Then, 10 μL/well of 3-(4,5-dimethylthiazol-2-yl)-2,5-diphenyltetrazolium bromide reagent (MTT, 5 mg/mL) were added. After 2–4 h of additional incubation the media was removed, and the plates were dried. Finally, 50 μL/well of DMSO were added to solve the formed formazan crystals produced by the metabolic active cells and Infinite F200PRO reader (TECAN, Männedorf, Switzerland) was used to measure the cell viability. The results were proceeded with a GraphPad Prism software v.9.1.1 (GraphPad Software, San Diego, CA, USA). Cells treated with the solvent of the drugs alone were used as a control (100% alive cells). The effect of the drugs on cell viability is represented as IC50.
In general terms: Tetrazolium assays rely on reduction of a dye to a coloured formazan, in cell work by metabolically active cells.

A further data set has as its system MRC-9. The data set is described as follows: MTT assay, cell viability. The format is cell-based. The settings on record: Homo sapiens, MRC9, MRC-9, 48 h of treatment, mean ± SD.
Source text: as §1, §2

The next data set deals with HEK293. The data set is described as follows: MTT assay, cell viability. The format is cell-based. The settings on record: Homo sapiens, HEK293, 48 h of treatment, mean ± SD.
Source text: as §1, §2

In the next data set the test system is PC3. The data set can be described thus: MTT assay, cell viability. The class given is cell-based. The settings on record: Homo sapiens, PC-3, PC3, 48 h of treatment, mean ± SD.
Source text: as §1, §2

A further data set relates to PNT2. The data set is described as follows: MTT assay, cell viability. The format is cell-based. Particulars: Homo sapiens, PNT2, 48 h of treatment, mean ± SD.
Source text: as §1, §2

For another data set, the system named is RWPE-1. The data set is described as follows: MTT assay, cell viability. The settings on record: Homo sapiens, RWPE-1, 48 h of treatment, mean ± SD. The class given is cell-based.
Source text: as §1, §2

The next data set concerns VCaP. The data set is described as follows: MTT assay, cell viability. The settings on record: Homo sapiens, 48 h of treatment, mean ± SD. The format is cell-based.
Source text: as §1, §2

For another data set, the system named is DU145. The data set can be described thus: MTT assay, cell viability. Particulars: Homo sapiens, DU-145, DU145, 48 h of treatment, mean ± SD. The format is cell-based.
Source text: as §1, §2

The subject of the next data set is 22Rv1. The data set is described as follows: MTT assay, cell viability. The class given is cell-based. The settings on record: Homo sapiens, 22Rv1, 48 h of treatment, mean ± SD.
Source text: as §1, §2

Another data set relates to prostate cancer cells. The data set is described as follows: MTT assay, mean IC50 in cancer cell panel and selectivity index. The class given is cell-based, human.
Source text: as §1, §2

The subject of the next data set is noncancer cells. The data set can be described thus: MTT assay, mean IC50 in noncancer cell panel. The class given is cell-based. The settings on record: Homo sapiens, mean over PNT2, RWPE-1, HEK293, MRC-9, 48 h.
Source text: as §1
The MTT assay was used to monitor the effect of the drugs on cell viability in terms of metabolic activity, as previously reported. First, preincubation of the cells in 96-well plates (6 × 10^3 cells/well in 100 μL/well) was performed overnight in the correspondent culture medium. Next, the medium was exchanged for fresh medium containing the investigated compounds or a vehicle (100 μL/well). […] Finally, 50 μL/well of DMSO were added to solve the formed formazan crystals produced by the metabolic active cells and Infinite F200PRO reader (TECAN, Männedorf, Switzerland) was used to measure the cell viability. […]

The test system of data set [3] is PC3-DR cells. The data set is described as follows: Drug combination study NB with docetaxel, MTT assay, SynergyFinder 2.0. The class given is cell-based. The settings on record: Homo sapiens, PC3-DR, NB 0, 24 h, MTT. Here is the method: Thus, drug-resistant PC3-DR cells were treated with docetaxel in combination with NB (Figure 9). Potential synergism between NB and docetaxel was measured by the Chou–Talalay method as described before.
Figure 9 Combinational treatment on PC3-DR cells with NB and docetaxel. […] MTT assay was used to examine cellular viability. Number of replicates n = 3. (A) The heatmap represents cytotoxicity (viability inhibition) of the individual drugs or their combinations. (B,C) To calculate and visualize in 2D (B) or 3D (C) the effect of the drug combination (synergism/additive effect/antagonism), the SynergyFinder v. 2.0 software (Network Pharmacology for Precision Medicine in the Research Program of System Oncology, Faculty of Medicine at University of Helsinki, Helsinki, Finland) and a ZIP reference model were used. Green regions indicate antagonism, white regions refer to additive effect, and red regions indicate synergism.
(§3) The experiments were carried out as previously reported. […] 22Rv1 cells (6 × 10^3 cells/well in 96-well plates) were simultaneously treated with NB and docetaxel; or pretreated with MAPK inhibitors for 1 h following treatment with NB in the total media volume of 100 µL/well. Following 24 h of incubation, the viability of the cells treated with individual drugs as well as their combinations was determined using MTT assay. […] Red areas (positive δ-values) and green areas (negative δ-values) indicate synergism and antagonism, respectively.

Data set [4] relates to 22Rv1 cells. The data set can be described thus: Drug combination study NB with MAPK inhibitors, MTT assay, SynergyFinder 2.0. The class given is cell-based. Particulars: Homo sapiens, MTT.
Source text: Whether activation of MAPKs contribute to cell death or survival depends not only on the cellular context, but also on the nature of the activating stimuli. Thus, to reveal the function of JNK1/2 and p38 in the anticancer effect of NB, we co-treated 22Rv1 cells with NB and specific inhibitors of the above-mentioned MAPKs. […] As MEK1/2 kinase directly and exclusively activates ERK1/2, PD98039 inhibitor is often used as an ERK1/2 inhibitor [38]. Thus, an inactivation of MEK1/2 leads solely to an inhibition of ERK1/2 [38]. Since the inhibitors themselves exert cytotoxic effects in cancer cells, we used a Chou–Talalay method to distinguish between synergism, additive effects, or antagonistic effects of the particular MAPK inhibitor on the compound bioactivity. For this, using an MTT assay, we determined a cytotoxic effect on various concentrations of NB, MAPK inhibitors, and their combinations in 22Rv1 cells. The viability data were further analyzed using the SynergyFinder v. 2.0 software (Network Pharmacology for Precision Medicine in the Research Program of System Oncology, Faculty of Medicine at University of Helsinki, Helsinki, Finland) and a Zero interaction potency (ZIP) reference model (Figure 7).
as §3

A further data set concerns HeLa cells. Set-up: method as in PMID 28051860. Particulars: cited from earlier work.

For `COc1ccc(C[C@H]2NC[C@H](O)[C@H]2OC(C)=O)cc1` [Anisomycin, anisomycin, reference compound], in the data set with 22Rv1 cells [1], the “effect of pretreatment with pan-caspase inhibitor zVAD on drug-induced cell death” value is “strongly inhibited”.
Take `CC(=O)O[C@@]12CO[C@@H]1C[C@H](O)[C@@]1(C)C(=O)[C@H](O)C3=C(C)[C@@H](OC(=O)[C@H](O)[C@@H](NC(=O)OC(C)(C)C)c4ccccc4)C[C@@](O)([C@@H](OC(=O)c4ccccc4)[C@H]21)C3(C)C` [Docetaxel, docetaxel, reference compound]: the “fold less sensitivity of PC3-DR compared to parental cell line” value in the data set with PC3-DR cells [2] is given as ~ 50 fold. Besides, the “fold more resistant compared to the parental cell line PC3” value in the data set on PC3-DR cells [2] is given as ~ 50 fold. Also, the half-inhibitory concentration (IC50) in the data set with PC3-DR is 325 ± 21.7 nM; in the data set on MRC-9, above 500 nM; with HEK293 it was 11.5 ± 3.22 nM; in the data set on PC3 it was 7.49 ± 7.09 nM; in the data set on PNT2, above 500 nM; in the data set on RWPE-1, 0.42 ± 0.23 nM. In addition, the half-inhibitory concentration (IC50) with VCaP is 0.23 ± 0.22 nM; with DU145 it was 2.2 ± 0.6 nM; in the data set with 22Rv1 it was 0.6 ± 0.12 nM; with prostate cancer cells (Homo sapiens, mean over PC3, PC3-DR, DU145, 22Rv1, VCaP, LNCaP, 48 h, MTT) it was 56.8 nM; with noncancer cells, 253 nM. In addition, the “Selectivity Index (SI)” value in the data set on prostate cancer cells ([mean IC50 in noncancer cells]/[mean IC50 in cancer cells]) is reported as 4.5. In the data set on PC3-DR cells [3] (docetaxel 6.25 nM), the inhibition at 0.00625 µM was determined as 8.64%. In addition, the inhibition at 0.025 µM in the data set with PC3-DR cells [3] (docetaxel 25 nM) came to 18.7%. Besides, the inhibition at 0.1 µM in the data set on PC3-DR cells [3] (docetaxel 100 nM) turned out to be 31%. Also, in the data set on PC3-DR cells [3] (docetaxel 400 nM), the inhibition at 0.4 µM was 58.8%.
Turning to `C[S+]([O-])c1ccc(-c2nc(-c3ccncc3)c(-c3ccc(F)cc3)[nH]2)cc1` (stereo not drawn) [SB203580, reference compound], the inhibition at 12.5 µM in the data set with 22Rv1 cells [4] (22Rv1, 22Rv1, inhibitor alone 12.5 μM (NB 0)) amounted to 27.6%. The inhibition at 25 µM in the data set with 22Rv1 cells [4] (22Rv1, 22Rv1, inhibitor alone 25 μM (NB 0)) was found to be 39.7%. In the data set with 22Rv1 cells [4] (22Rv1, 22Rv1, inhibitor alone 50 μM (NB 0)), the inhibition at 50 µM turned out to be 53.3%. For the same molecule, the inhibition at 100 µM with 22Rv1 cells [4] (22Rv1, 22Rv1, inhibitor alone 100 μM (NB 0)) amounted to 63.9%.
For `Oc1c2ccccc2c2c3c(cccc13)N=N2` [SP600125, reference compound], the inhibition at 12.5 µM in the data set with 22Rv1 cells [4] (22Rv1, inhibitor alone 12.5 μM (NB 0), read-out: Inhibition (%)) was -5.92%. Besides, the inhibition at 25 µM in the data set on 22Rv1 cells [4] (22Rv1, inhibitor alone 25 μM (NB 0), read-out: Inhibition (%)) came to 0.99%. Further, the inhibition at 50 µM in the data set with 22Rv1 cells [4] (22Rv1, inhibitor alone 50 μM (NB 0), read-out: Inhibition (%)) is 19.4%. Further, in the data set with 22Rv1 cells [4] (22Rv1, inhibitor alone 100 μM (NB 0), read-out: Inhibition (%)), the inhibition at 100 µM was determined as 27.5%.
`COc1ccc2cc(NC(=O)C3=NO[C@H]4[C@H](O)C=C[C@@H](O)[C@@]4(O)C3)c(=O)oc2c1OC` [trichodermamide A]: in the data set with HeLa cells, the “cytotoxic activity in HeLa cells” value was “inactive”.
Take `COc1ccc2cc(NC(=O)C3=NO[C@H]4[C@H](O)C=C[C@@H](Cl)[C@@]4(O)C3)c(=O)oc2c1OC` [trichodermamide B]: in the data set with HeLa cells, the “cytotoxic activity in HeLa cells” value is “high cytotoxic activity”.
Regarding `COc1ccc2cc(N(C)C(=O)C3=NO[C@H]4[C@H](O)C=C[C@@H](O)[C@@]4(O)C3)c(=O)oc2c1OC` [trichodermamide C], the “cytotoxic activity in HeLa cells” value in the data set with HeLa cells is “inactive”.

The values above are taken from PMC9605374 (Marine Drugs, 2022).
